Assay: xn = mol fraction of the nth substance listed
Details: 100 kPa, Liquid; for viscosity: Falling or rolling sphere viscometry; for mass density: Vibrating tube method

CCCCCCCCCCCC(=O)OC [methyl dodecanoate] + CC1CCCCC1
Details | mass density [kg/m3] | viscosity [mPa·s]
293.15 K, x2 = 0 | 869.3 | 3.151
293.15 K, x2 = 0.1 | 863.68 | 2.838
293.15 K, x2 = 0.2 | 857.47 | 2.545
293.15 K, x2 = 0.3 | 850.62 | 2.264
293.15 K, x2 = 0.4001 | 842.9 | 2
293.15 K, x2 = 0.5001 | 834.34 | 1.743
293.15 K, x2 = 0.6 | 824.66 | 1.501
293.15 K, x2 = 0.6999 | 813.62 | 1.28
293.15 K, x2 = 0.8 | 801 | 1.071
293.15 K, x2 = 0.8999 | 786.46 | 0.887
298.15 K, x2 = 0 | 865.39 | 2.792
298.15 K, x2 = 0.1 | 859.76 | 2.527
298.15 K, x2 = 0.2 | 853.54 | 2.28
298.15 K, x2 = 0.3 | 846.68 | 2.041
298.15 K, x2 = 0.4001 | 838.94 | 1.811
298.15 K, x2 = 0.5001 | 830.36 | 1.587
298.15 K, x2 = 0.6 | 820.65 | 1.373
298.15 K, x2 = 0.6999 | 809.56 | 1.177
298.15 K, x2 = 0.8 | 796.88 | 0.992
298.15 K, x2 = 0.8999 | 782.25 | 0.825
303.15 K, x2 = 0 | 861.46 | 2.504
303.15 K, x2 = 0.1 | 855.83 | 2.279
303.15 K, x2 = 0.2 | 849.6 | 2.06
303.15 K, x2 = 0.3 | 842.72 | 1.85
303.15 K, x2 = 0.4001 | 834.97 | 1.646
303.15 K, x2 = 0.5001 | 826.36 | 1.448
303.15 K, x2 = 0.6 | 816.61 | 1.261
303.15 K, x2 = 0.6999 | 805.48 | 1.087
303.15 K, x2 = 0.8 | 792.75 | 0.919
303.15 K, x2 = 0.8999 | 778.03 | 0.77
308.15 K, x2 = 0 | 857.53 | 2.263
308.15 K, x2 = 0.1 | 851.9 | 2.064
308.15 K, x2 = 0.2 | 845.67 | 1.876
308.15 K, x2 = 0.3 | 838.76 | 1.693
308.15 K, x2 = 0.4001 | 830.99 | 1.512
308.15 K, x2 = 0.5001 | 822.36 | 1.339
308.15 K, x2 = 0.6 | 812.57 | 1.168
308.15 K, x2 = 0.6999 | 801.4 | 1.007
308.15 K, x2 = 0.8 | 788.6 | 0.858
308.15 K, x2 = 0.8999 | 773.79 | 0.722
313.15 K, x2 = 0 | 853.61 | 2.049
313.15 K, x2 = 0.1 | 847.96 | 1.877
313.15 K, x2 = 0.2 | 841.71 | 1.714
313.15 K, x2 = 0.3 | 834.79 | 1.552
313.15 K, x2 = 0.4001 | 827.01 | 1.393
313.15 K, x2 = 0.5001 | 818.35 | 1.237
313.15 K, x2 = 0.6 | 808.52 | 1.086
313.15 K, x2 = 0.6999 | 797.31 | 0.937
313.15 K, x2 = 0.8 | 784.44 | 0.801
313.15 K, x2 = 0.8999 | 769.54 | 0.676
318.15 K, x2 = 0 | 849.69 | 1.875
318.15 K, x2 = 0.1 | 844.02 | 1.725
318.15 K, x2 = 0.2 | 837.77 | 1.581
318.15 K, x2 = 0.3 | 830.83 | 1.437
318.15 K, x2 = 0.4001 | 823.02 | 1.294
318.15 K, x2 = 0.5001 | 814.32 | 1.151
318.15 K, x2 = 0.6 | 804.45 | 1.012
318.15 K, x2 = 0.6999 | 793.18 | 0.879
318.15 K, x2 = 0.8 | 780.26 | 0.754
318.15 K, x2 = 0.8999 | 765.28 | 0.638
323.15 K, x2 = 0 | 845.76 | 1.729
323.15 K, x2 = 0.1 | 840.08 | 1.592
323.15 K, x2 = 0.2 | 833.81 | 1.461
323.15 K, x2 = 0.3 | 826.86 | 1.332
323.15 K, x2 = 0.4001 | 819.02 | 1.202
323.15 K, x2 = 0.5001 | 810.28 | 1.073
323.15 K, x2 = 0.6 | 800.37 | 0.946
323.15 K, x2 = 0.6999 | 789.06 | 0.826
323.15 K, x2 = 0.8 | 776.07 | 0.711
323.15 K, x2 = 0.8999 | 761 | 0.603

CCCCCCCCCCCCCC(=O)OC [methyl tetradecanoate] + CC1CCCCC1
Details | mass density [kg/m3] | viscosity [mPa·s]
293.15 K, x2 = 0 | 867.17 | 4.557
293.15 K, x2 = 0.1 | 862.3 | 4.065
293.15 K, x2 = 0.2 | 856.82 | 3.591
293.15 K, x2 = 0.3 | 850.69 | 3.141
293.15 K, x2 = 0.4003 | 843.72 | 2.706
293.15 K, x2 = 0.5001 | 835.76 | 2.304
293.15 K, x2 = 0.6 | 826.55 | 1.925
293.15 K, x2 = 0.6999 | 815.89 | 1.578
293.15 K, x2 = 0.8 | 803.17 | 1.267
293.15 K, x2 = 0.8999 | 787.98 | 0.982
298.15 K, x2 = 0 | 863.35 | 3.979
298.15 K, x2 = 0.1 | 858.46 | 3.575
298.15 K, x2 = 0.2 | 853 | 3.176
298.15 K, x2 = 0.3 | 846.86 | 2.792
298.15 K, x2 = 0.4003 | 839.87 | 2.424
298.15 K, x2 = 0.5001 | 831.9 | 2.072
298.15 K, x2 = 0.6 | 822.64 | 1.743
298.15 K, x2 = 0.6999 | 811.92 | 1.438
298.15 K, x2 = 0.8 | 799.13 | 1.163
298.15 K, x2 = 0.8999 | 783.83 | 0.91
303.15 K, x2 = 0 | 859.54 | 3.519
303.15 K, x2 = 0.1 | 854.64 | 3.179
303.15 K, x2 = 0.2 | 849.17 | 2.838
303.15 K, x2 = 0.3 | 843.02 | 2.507
303.15 K, x2 = 0.4003 | 836.01 | 2.19
303.15 K, x2 = 0.5001 | 828.01 | 1.884
303.15 K, x2 = 0.6 | 818.71 | 1.6
303.15 K, x2 = 0.6999 | 807.93 | 1.327
303.15 K, x2 = 0.8 | 795.07 | 1.078
303.15 K, x2 = 0.8999 | 779.65 | 0.848
308.15 K, x2 = 0 | 855.74 | 3.093
308.15 K, x2 = 0.1 | 850.83 | 2.803
308.15 K, x2 = 0.2 | 845.36 | 2.515
308.15 K, x2 = 0.3 | 839.19 | 2.234
308.15 K, x2 = 0.4003 | 832.16 | 1.962
308.15 K, x2 = 0.5001 | 824.11 | 1.695
308.15 K, x2 = 0.6 | 814.78 | 1.445
308.15 K, x2 = 0.6999 | 803.92 | 1.205
308.15 K, x2 = 0.8 | 791 | 0.987
308.15 K, x2 = 0.8999 | 775.46 | 0.782
313.15 K, x2 = 0 | 851.94 | 2.797
313.15 K, x2 = 0.1 | 847.02 | 2.552
313.15 K, x2 = 0.2 | 841.53 | 2.302
313.15 K, x2 = 0.3 | 835.34 | 2.054
313.15 K, x2 = 0.4003 | 828.29 | 1.803
313.15 K, x2 = 0.5001 | 820.21 | 1.564
313.15 K, x2 = 0.6 | 810.83 | 1.336
313.15 K, x2 = 0.6999 | 799.9 | 1.121
313.15 K, x2 = 0.8 | 786.91 | 0.918
313.15 K, x2 = 0.8999 | 771.26 | 0.735
318.15 K, x2 = 0 | 848.14 | 2.544
318.15 K, x2 = 0.1 | 843.22 | 2.325
318.15 K, x2 = 0.2 | 837.71 | 2.101
318.15 K, x2 = 0.3 | 831.5 | 1.879
318.15 K, x2 = 0.4003 | 824.42 | 1.661
318.15 K, x2 = 0.5001 | 816.31 | 1.45
318.15 K, x2 = 0.6 | 806.88 | 1.249
318.15 K, x2 = 0.6999 | 795.9 | 1.052
318.15 K, x2 = 0.8 | 782.82 | 0.868
318.15 K, x2 = 0.8999 | 767.04 | 0.695
323.15 K, x2 = 0 | 844.34 | 2.308
323.15 K, x2 = 0.1 | 839.41 | 2.115
323.15 K, x2 = 0.2 | 833.87 | 1.92
323.15 K, x2 = 0.3 | 827.63 | 1.728
323.15 K, x2 = 0.4003 | 820.53 | 1.534
323.15 K, x2 = 0.5001 | 812.38 | 1.345
323.15 K, x2 = 0.6 | 802.92 | 1.161
323.15 K, x2 = 0.6999 | 791.88 | 0.985
323.15 K, x2 = 0.8 | 778.71 | 0.819
323.15 K, x2 = 0.8999 | 762.81 | 0.658

Source: the NIST ThermoML archive (doi:10.1016/j.jct.2019.05.021)
